These results are taken from patent US7718659B2, “Heteroarylacetamide inhibitors of factor Xa” (priority 2004, dated 2010).

For the test, the target named is human factor Xa (Homo sapiens, UniProt P00742). In words: biochemical. Particulars: human factor Xa 3 nM, chromogenic substrate S-2222, HNPT buffer pH 7.8, room temperature; apparent Ki calculated from IC50 according to Cheng and Prusoff.
Sequence of human factor Xa (P00742 235-488 limits assumed): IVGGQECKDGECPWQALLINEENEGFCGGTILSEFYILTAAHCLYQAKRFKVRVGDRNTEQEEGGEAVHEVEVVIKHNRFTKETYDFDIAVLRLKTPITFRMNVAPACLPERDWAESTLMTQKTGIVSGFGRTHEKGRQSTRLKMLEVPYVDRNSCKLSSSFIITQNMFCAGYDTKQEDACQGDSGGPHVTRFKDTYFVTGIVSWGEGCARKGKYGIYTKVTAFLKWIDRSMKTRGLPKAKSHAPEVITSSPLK
Sequence of human factor Xa (P00742 41-179 partner limits assumed): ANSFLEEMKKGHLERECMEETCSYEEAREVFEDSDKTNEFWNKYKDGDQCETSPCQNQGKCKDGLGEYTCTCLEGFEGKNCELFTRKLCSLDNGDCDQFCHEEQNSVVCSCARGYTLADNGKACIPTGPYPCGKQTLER

Procedure: Factor Xa activity was measured spectrophotometrically in microtiter plates in a final volume of 150 μl using the following conditions: Inhibition of human factor Xa (Enzyme Research Laboratories) was tested at an enzyme concentration of 3 nM using the chromogenic substrate S-2222 (Chromogenix AB, Mölndal, Sweden) at 200 nM. The reaction kinetics of the enzyme and the substrate were linear with both time and the enzyme concentration. The inhibitors were dissolved in DMSO and tested at various concentrations up to 100 μM. The inhibitors were diluted using HNPT buffer consisting of HEPES 100 mM, NaCl 140 mM, PEG 6000 0.1% and Tween 80 0.02%, pH 7.8. […]
The velocity of the reaction was determined by the autoreader from the slope of the linear regression fit to 7 time points (1 minute). The initial velocity for each inhibitor concentration was determined by the slope of at least 4 time points in the linear phase by a linear regression fit (mOD/min^2). Apparent dissociation constants Ki were calculated according to Cheng and Prusoff [Cheng, Y. C.; Prusoff, W. H. Relationship between the inhibition constant (Ki) and the concentration of the inhibitor that causes 50 percent inhibition (IC50) of an enzyme reaction. Biochem. Pharmacol. 1973, 22, 3099-3108.] based on the IC50 and the respective Km, determined previously (Ki=IC50/(I+S/Km)). […]

In the case of `CN1CCC(N2CCN(C(=O)Cc3csc(NC(=O)c4ccc(Br)s4)n3)CC2)CC1` [Ex. 47.3, 5-bromo-thiophene-2-carboxylic acid (4-{2-[4-(1-methyl-piperidin-4-yl)-piperazin-1-yl]-2-oxo-ethyl}-thiazol-2-yl)-amide], the Ki is 0.026 µM.
